Source: patent publication US8415469B2, “Compounds and methods for kinase modulation, and indications therefor” (Plexxikon Inc., priority 2005, dated 2013)
pIC50: −log10 of the molar value.

Legend:
Format in all cases: biochemical
Kit = target: T1, Kit (Homo sapiens, UniProt P10721); assay: AlphaScreen kinase assay, Kit; details: read-out: IC50, activity toward kinase Kit
T1 construct: P1332.N6 BI PTP KIT M552-K948-X COD; His6 (N); made in house; host or cells: E. coli (PTP1B co-expressed)

B-Raf V600E = target: T2, B-Raf V600E (Homo sapiens, UniProt P15056, V600E); assay: AlphaScreen kinase assay, B-Raf V600E; details: read-out: IC50, activity toward kinase B-Raf V600E
T2 construct: P4254. pFastBacBD-CDC37 BRAF D437-K722-X, V600E; His6 with pFastBac HT leader (TEV site) (N); made in house; host or cells: Sf9 (baculovirus; chaperone CDC37 co-expressed)
T2 sequence (P15056 with tags, fused parts or gaps V600E): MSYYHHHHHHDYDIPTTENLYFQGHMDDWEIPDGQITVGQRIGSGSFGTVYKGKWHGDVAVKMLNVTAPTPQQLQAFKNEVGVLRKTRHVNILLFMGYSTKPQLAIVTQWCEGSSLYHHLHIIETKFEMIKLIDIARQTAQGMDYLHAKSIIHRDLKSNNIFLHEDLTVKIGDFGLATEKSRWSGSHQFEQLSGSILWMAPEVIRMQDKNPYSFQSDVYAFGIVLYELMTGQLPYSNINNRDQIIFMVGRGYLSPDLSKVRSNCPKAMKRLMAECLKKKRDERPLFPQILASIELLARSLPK

FGFR1 = target: T3, FGFR1 (Homo sapiens, UniProt P11362, C488A/C584S); assay: AlphaScreen kinase assay, FGFR1; details: read-out: IC50, activity toward kinase FGFR
T3 construct: P1351.pET N6 BI-PTP FGFR A458-E765-X C488A, C584S; made in house; host or cells: E. coli (PTP1B co-expressed)
T3 sequence (P11362 458-765 C488A/C584S): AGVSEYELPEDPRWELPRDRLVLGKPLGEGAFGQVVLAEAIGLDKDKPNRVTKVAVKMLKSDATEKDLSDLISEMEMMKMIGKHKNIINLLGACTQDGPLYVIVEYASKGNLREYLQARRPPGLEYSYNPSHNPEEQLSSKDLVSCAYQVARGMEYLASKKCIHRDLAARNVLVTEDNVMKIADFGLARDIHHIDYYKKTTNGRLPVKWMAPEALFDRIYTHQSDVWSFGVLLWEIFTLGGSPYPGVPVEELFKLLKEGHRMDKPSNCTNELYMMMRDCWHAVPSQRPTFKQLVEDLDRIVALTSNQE

Fms = target: T4, Fms (Homo sapiens, UniProt P07333); assay: AlphaScreen kinase assay, Fms; details: read-out: IC50, activity toward kinase Fms
T4 construct: purchased Upstate Biotechnology
T4 sequence (P07333 20-972): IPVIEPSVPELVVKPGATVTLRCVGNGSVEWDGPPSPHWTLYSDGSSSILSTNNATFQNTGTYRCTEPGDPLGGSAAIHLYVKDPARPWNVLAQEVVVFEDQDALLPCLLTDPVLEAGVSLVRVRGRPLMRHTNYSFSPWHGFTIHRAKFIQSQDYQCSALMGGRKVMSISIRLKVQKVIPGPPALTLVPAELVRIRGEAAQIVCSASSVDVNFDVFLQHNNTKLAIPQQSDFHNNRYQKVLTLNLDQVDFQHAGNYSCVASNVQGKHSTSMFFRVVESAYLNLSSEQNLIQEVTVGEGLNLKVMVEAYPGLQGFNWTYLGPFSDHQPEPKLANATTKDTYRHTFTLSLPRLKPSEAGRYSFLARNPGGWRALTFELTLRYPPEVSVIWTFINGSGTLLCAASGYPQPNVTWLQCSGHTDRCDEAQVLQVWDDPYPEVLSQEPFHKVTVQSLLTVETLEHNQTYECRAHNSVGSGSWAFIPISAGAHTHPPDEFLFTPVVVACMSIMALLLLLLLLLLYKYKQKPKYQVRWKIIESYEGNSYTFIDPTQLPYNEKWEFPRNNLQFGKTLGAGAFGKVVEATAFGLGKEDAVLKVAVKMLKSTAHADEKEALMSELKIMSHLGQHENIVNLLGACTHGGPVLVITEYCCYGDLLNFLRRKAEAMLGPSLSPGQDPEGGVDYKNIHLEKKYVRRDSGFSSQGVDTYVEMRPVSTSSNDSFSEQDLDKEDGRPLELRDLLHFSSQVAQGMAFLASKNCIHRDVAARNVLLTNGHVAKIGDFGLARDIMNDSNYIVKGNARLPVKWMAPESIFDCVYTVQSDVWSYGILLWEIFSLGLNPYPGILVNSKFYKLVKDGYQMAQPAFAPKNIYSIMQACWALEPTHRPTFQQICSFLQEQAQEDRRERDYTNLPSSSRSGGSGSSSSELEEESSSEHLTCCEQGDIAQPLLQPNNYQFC

T1 sequence (P10721 with tags, fused parts or gaps): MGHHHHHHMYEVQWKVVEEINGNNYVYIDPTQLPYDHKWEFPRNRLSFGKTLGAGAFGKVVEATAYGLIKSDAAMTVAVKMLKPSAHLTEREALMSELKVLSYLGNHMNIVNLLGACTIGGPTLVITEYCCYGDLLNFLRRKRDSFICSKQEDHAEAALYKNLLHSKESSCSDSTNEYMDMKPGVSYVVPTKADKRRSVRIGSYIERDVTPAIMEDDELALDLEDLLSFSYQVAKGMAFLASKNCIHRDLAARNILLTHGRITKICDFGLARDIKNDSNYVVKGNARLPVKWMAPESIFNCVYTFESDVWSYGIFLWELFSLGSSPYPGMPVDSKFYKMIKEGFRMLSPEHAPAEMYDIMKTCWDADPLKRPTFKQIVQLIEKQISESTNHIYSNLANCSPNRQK

Row | SMILES | pIC50 (Kit) | pIC50 (B-Raf V600E) | pIC50 (FGFR1) | pIC50 (Fms)
1 | OC(c1ccc2c(c1)OC(F)(F)O2)c1c[nH]c2ncc(Br)cc12 (centres unmarked) [Compound P-1550] | ≥ 5.00 | ≥ 5.00 | ≥ 5.00 | 
2 | Clc1ccc(CNc2ccc(Cc3c[nH]c4ncc(Br)cc34)cn2)cc1 [Compound P-0420] |  | ≥ 5.00 | ≥ 5.00 | ≥ 5.00
3 | COc1cccc(Cc2c[nH]c3ncc(-c4cccc(Cl)c4)cc23)c1F [Compound P-1326, 5-(3-Chloro-phenyl)-3-(2-fluoro-3-methoxy-benzyl)-1H-pyrrolo[2,3-b]pyridine] |  |  | ≥ 5.00 | ≥ 5.00
4 | OC(c1cccc(OC(F)F)c1)c1c[nH]c2ncc(Br)cc12 (centres unmarked) [Compound P-1511] |  |  |  | ≥ 5.00
5 | COc1cccc(C(=O)c2c[nH]c3ncc(-c4ccc(Cl)cc4)cc23)c1F [Compound P-1333, [5-(4-Chloro-phenyl)-1H-pyrrolo[2,3-b]pyridin-3-yl]-(2-fluoro-3-methoxy-phenyl)-methanone] |  |  | ≥ 5.00 | ≥ 5.00
6 | O=C(c1ccc2c(c1)OC(F)(F)O2)c1c[nH]c2ncc(-c3cccnc3)cc12 [Compound P-1558, (2,2-Difluoro-benzo[1,3]dioxol-5-yl)-(5-pyridin-3-yl-1H-pyrrolo[2,3-b]pyridin-3-yl)-methanone] |  | ≥ 5.00 |  | ≥ 5.00
7 | O=C(c1cccc(C(F)(F)F)c1)c1c[nH]c2ncc(-c3ccccc3)cc12 [Compound P-1405, (5-Phenyl-1H-pyrrolo[2,3-b]pyridin-3-yl)-(3-trifluoromethyl-phenyl)-methanone] |  |  |  | ≥ 5.00
8 | COc1cccc(Cc2c[nH]c3ncc(-c4cccc(C(F)(F)F)c4)cc23)c1F [Compound P-1325, 3-(2-Fluoro-3-methoxy-benzyl)-5-(3-trifluoromethyl-phenyl)-1H-pyrrolo[2,3-b]pyridine] |  |  | ≥ 5.00 | ≥ 5.00
9 | OC(c1ccc(NCc2ccc(C(F)(F)F)cc2)nc1)c1c[nH]c2ncccc12 (centres unmarked) [Compound P-0291] |  |  |  | ≥ 5.00
10 | c1ccc(Oc2ccccc2Nc2c[nH]c3ncccc23)cc1 [Compound P-1501, (2-Phenoxy-phenyl)-(1H-pyrrolo[2,3-b]pyridin-3-yl)-amine] | ≥ 5.00 |  |  | ≥ 5.00
11 | O=C(Nc1ccc(F)cc1)Nc1ccc(F)c(Cc2c[nH]c3ncc(Cl)cc23)c1F [Compound P-1657, 1-[3-(5-Chloro-1H-pyrrolo[2,3-b]pyridin-3-ylmethyl)-2,4-difluoro-phenyl]-3-(4-fluoro-phenyl)-urea] |  |  |  | ≥ 5.00
12 | COc1cccc(Cc2c[nH]c3ncccc23)c1 [Compound P-0239] |  |  |  | ≥ 5.00
13 | COCCNC(=O)Nc1cccc(C(=O)c2c[nH]c3ncccc23)c1 [Compound P-1761, 1-(2-Methoxy-ethyl)-3-[3-(1H-pyrrolo[2,3-b]pyridine-3-carbonyl)-phenyl]urea] |  |  |  | ≥ 5.00
14 | O=C(c1cccc(C(F)(F)F)c1)c1c[nH]c2ncc(-c3cccnc3)cc12 [Compound P-1410, (5-Pyridin-3-yl-1H-pyrrolo[2,3-b]pyridin-3-yl)-(3-trifluoromethyl-phenyl)-methanone] | ≥ 5.00 |  |  | ≥ 5.00
15 | Clc1ccc(Cc2c[nH]c3nccc(Br)c23)cn1 [Compound P-0447] | ≥ 5.00 | ≥ 5.00 | ≥ 5.00 | 
16 | O=C(NCc1ccc(F)cc1)Nc1ccc(F)c(Cc2c[nH]c3ncc(Cl)cc23)c1F [Compound P-1654, 1-[3-(5-Chloro-1H-pyrrolo[2,3-b]pyridin-3-ylmethyl)-2,4-difluoro-phenyl]-3-(4-fluoro-benzyl)-urea] |  |  |  | ≥ 5.00
17 | COc1cccc(Cc2c[nH]c3ncc(-c4cccc(F)c4)cc23)c1F [Compound P-1327, 3-(2-Fluoro-3-methoxy-benzyl)-5-(3-fluoro-phenyl)-1H-pyrrolo[2,3-b]pyridine] |  |  | ≥ 5.00 | ≥ 5.00
18 | COc1cccc(C(=O)c2c[nH]c3ncc(-c4ccc(C#N)cc4)cc23)c1F [Compound P-1335, 4-[3-(2-Fluoro-3-methoxy-benzoyl)-1H-pyrrolo[2,3-b]pyridin-5-yl]-benzonitrile] |  |  | ≥ 5.00 | ≥ 5.00
19 | COC(c1c(F)ccc(NC(=O)Nc2ccc(F)cc2)c1F)c1c[nH]c2ncc(Cl)cc12 (centres unmarked) [Compound P-1653] |  |  |  | ≥ 5.00
20 | CS(=O)(=O)Nc1cccc(Nc2c[nH]c3ncccc23)c1 [Compound P-1498, N-[3-(1H-Pyrrolo[2,3-b]pyridin-3-ylamino)-phenyl]-methanesulfonamide] | ≥ 5.00 |  |  | ≥ 5.00
21 | COc1ccc(Nc2c[nH]c3ncccc23)cc1 [Compound P-1488, (4-Methoxy-phenyl)-(1H-pyrrolo[2,3-b]pyridin-3-yl)-amine] | ≥ 5.00 |  |  | ≥ 5.00

Row | SMILES | pIC50 (Kit) | pIC50 (B-Raf V600E) | pIC50 (FGFR1) | pIC50 (Fms)
22 | COc1cc(Nc2c[nH]c3ncccc23)cc(OC)c1 [Compound P-1503, (3,5-Dimethoxy-phenyl)-(1H-pyrrolo[2,3-b]pyridin-3-yl)-amine] | ≥ 5.00 |  |  | ≥ 5.00
23 | O=C(c1cc(F)cc(C(F)(F)F)c1)c1c[nH]c2ncc(-c3ccccc3)cc12 [Compound P-1407, (3-Fluoro-5-trifluoromethyl-phenyl)-(5-phenyl-1H-pyrrolo[2,3-b]pyridin-3-yl)-methanone] | ≥ 5.00 |  | ≥ 5.00 | 
24 | O=C(NCC1CC1)Nc1ccc(F)c(Cc2c[nH]c3ncc(Cl)cc23)c1F [Compound P-1652, 1-[3-(5-Chloro-1H-pyrrolo[2,3-b]pyridin-3-ylmethyl)-2,4-difluoro-phenyl]-3-cyclopropylmethyl-urea] |  |  |  | ≥ 5.00
25 | COc1cccc(Cc2c[nH]c3ncc(-c4ccc(C(F)(F)F)cc4)cc23)c1F [Compound P-1324, 3-(2-Fluoro-3-methoxy-benzyl)-5-(4-trifluoromethyl-phenyl)-1H-pyrrolo[2,3-b]pyridine] |  |  |  | ≥ 5.00
26 | COc1cc(C(OC)c2c[nH]c3ncccc23)ccc1OCc1ccc(Cl)cc1 (centres unmarked) [Compound P-1340] |  |  | ≥ 5.00 | ≥ 5.00
27 | FC(F)(F)Oc1cccc(Nc2c[nH]c3ncccc23)c1 [Compound P-1493, (1H-Pyrrolo[2,3-b]pyridin-3-yl)-(3-trifluoromethoxy-phenyl)-amine] | ≥ 5.00 |  |  | ≥ 5.00
28 | OCCOc1cccc(Cc2c[nH]c3ncccc23)c1 [Compound P-0411] | ≥ 5.00 |  | ≥ 5.00 | 
29 | FC(F)Oc1cc(Cc2c[nH]c3ncc(Br)cc23)cc(OC(F)F)c1 [Compound P-1538, 3-(3,5-Bis-difluoromethoxy-benzyl)-5-bromo-1H-pyrrolo[2,3-b]pyridine] | ≥ 5.00 |  | ≥ 5.00 | 
30 | COc1cccc(C(=O)c2c[nH]c3ncc(-c4cccc(OC(F)(F)F)c4)cc23)c1F [Compound P-1344, (2-Fluoro-3-methoxy-phenyl)-[5-(3-trifluoromethoxy-phenyl)-1H-pyrrolo[2,3-b]pyridin-3-yl]-methanone] |  |  | ≥ 5.00 | ≥ 5.00
31 | COc1cccc(Cc2c[nH]c3ncc(-c4cccc(OC(F)(F)F)c4)cc23)c1F [Compound P-1328, 3-(2-Fluoro-3-methoxy-benzyl)-5-(3-trifluoromethoxy-phenyl)-1H-pyrrolo[2,3-b]pyridine] |  |  | ≥ 5.00 | ≥ 5.00
32 | COc1cccc(C(=O)c2c[nH]c3ncc(-c4cc(F)cc(F)c4)cc23)c1F [Compound P-1334, [5-(3,5-Difluoro-phenyl)-1H-pyrrolo[2,3-b]pyridin-3-yl]-(2-fluoro-3-methoxy-phenyl)-methanone] |  |  | ≥ 5.00 | ≥ 5.00
33 | CN(c1ccc(Cl)c(Cl)c1)c1c[nH]c2ncccc12 [Compound P-1494, (3,4-Dichloro-phenyl)-methyl-(1H-pyrrolo[2,3-b]pyridin-3-yl)-amine] |  |  |  | ≥ 5.00
34 | Cc1nc(NCc2ccc(Cl)cc2)ccc1Cc1c[nH]c2ncccc12 [Compound P-0927] |  | ≥ 5.00 | ≥ 5.00 | ≥ 5.00
35 | CC(=O)Nc1cccc(-c2cnc3[nH]cc(C(=O)c4cc(F)cc(C(F)(F)F)c4)c3c2)c1 [Compound P-1421, N-{3-[3-(3-Fluoro-5-trifluoromethyl-benzoyl)-1H-pyrrolo[2,3-b]pyridin-5-yl]-phenyl}-acetamide] |  |  |  | ≥ 5.00
36 | COc1cccc(C(=O)c2c[nH]c3ncc(-c4cccc(Cl)c4)cc23)c1F [Compound P-1332, [5-(3-Chloro-phenyl)-1H-pyrrolo[2,3-b]pyridin-3-yl]-(2-fluoro-3-methoxy-phenyl)-methanone] |  |  | ≥ 5.00 | ≥ 5.00
37 | CCCCOc1ccc(NC(=O)Nc2cccc(C(=O)c3c[nH]c4ncc(-c5ccc(F)cc5)cc34)c2)cc1 [Compound P-1754, 1-(4-Butoxy-phenyl)-3-{3-[5-(4-fluoro-phenyl)-1H-pyrrolo[2,3-b]pyridine-3-carbonyl]-phenyl}-urea] |  |  |  | ≥ 5.00
38 | COc1nc(NCc2ccc(C(F)(F)F)cc2)ccc1Cc1c[nH]c2ncccc12 [Compound P-1124] |  |  |  | ≥ 5.00
39 | Fc1ccccc1Cc1c[nH]c2ncc(Br)cc12 [Compound P-1342] |  |  | ≥ 5.00 | ≥ 5.00
40 | Cn1cnnc1-c1cccc(Nc2c[nH]c3ncccc23)c1 [Compound P-1504, [3-(4-Methyl-4H-[1,2,4]triazol-3-yl)-phenyl]-(1H-pyrrolo[2,3-b]pyridin-3-yl)-amine] |  |  |  | ≥ 5.00
41 | Clc1cccc(Cl)c1Cc1c[nH]c2ncccc12 [Compound P-1483, 3-(2,6-Dichloro-benzyl)-1H-pyrrolo[2,3-b]pyridine] | ≥ 5.00 |  |  | ≥ 5.00
